Measurements from paper PMC8583782, “Screening for the Active Anti-Inflammatory and Antioxidant Polyphenols of Gaultheria procumbens and Their Application for Standardisation: From Identification through Cellular Studies to Quantitative Determination” (International Journal of Molecular Sciences, 2021).

What follows are compounds tested against T1, HYAL (bovine testis hyaluronidase) (Bos taurus, UniProt Q2YDK3) (assay: hyaluronidase inhibition assay). Details: positive control; read-out: Anti-Inflammatory Activity / HYAL / IC50 (μM) ^a.
T1 construct: gene SPAM1; commercial native preparation from bovine testis (Merck)
T1 sequence (Q2YDK3 36-553): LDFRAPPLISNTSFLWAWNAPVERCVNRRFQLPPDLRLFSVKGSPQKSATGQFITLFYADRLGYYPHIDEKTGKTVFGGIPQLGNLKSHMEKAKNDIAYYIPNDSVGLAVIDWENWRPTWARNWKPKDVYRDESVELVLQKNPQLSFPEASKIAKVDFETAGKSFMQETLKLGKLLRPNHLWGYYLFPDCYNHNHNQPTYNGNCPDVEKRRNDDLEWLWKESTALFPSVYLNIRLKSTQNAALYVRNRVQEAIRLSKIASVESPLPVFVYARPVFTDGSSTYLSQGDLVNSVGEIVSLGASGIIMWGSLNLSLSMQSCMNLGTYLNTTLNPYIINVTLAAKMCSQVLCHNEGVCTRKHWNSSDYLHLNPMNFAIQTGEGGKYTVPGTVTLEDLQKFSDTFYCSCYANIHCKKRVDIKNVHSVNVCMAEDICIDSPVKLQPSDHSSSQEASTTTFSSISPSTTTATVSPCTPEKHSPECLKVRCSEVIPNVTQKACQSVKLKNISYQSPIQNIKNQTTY
Format: biochemical
From the text: hyaluronidase inhibition assay on HYAL (bovine testis hyaluronidase)

Row | IC50 | SMILES
1 | 35.7 ± 5.34 µM | COc1ccc2c(c1)c(CC(=O)O)c(C)n2C(=O)c1ccc(Cl)cc1 [IND, indomethacin, reference compound]
2 | 36.1 ± 2.68 µM | C[C@@H]1C[C@H]2[C@@H]3CCC4=CC(=O)C=C[C@]4(C)[C@@]3(F)[C@@H](O)C[C@]2(C)[C@@]1(O)C(=O)CO [DEX, dexamethasone, reference compound]

Same assay, conditions: tested at […]; read-out: Anti-Inflammatory Activity / HYAL / IC50 (μM) ^a

Row | IC50 | SMILES
3 | 37.4 ± 1.78 µM | Oc1cc(O)c2c(c1)O[C@H](c1ccc(O)c(O)c1)[C@H](O)[C@H]2c1c(O)cc(O)c2c1O[C@H](c1ccc(O)c(O)c1)[C@H](O)C2 [PB2, epicatechin-(4β→8)-epicatechin]
4 | 98.2 ± 4.41 µM | O=C(O)[C@H]1O[C@@H](Oc2c(-c3ccc(O)c(O)c3)oc3cc(O)cc(O)c3c2=O)[C@H](O)[C@@H](O)[C@@H]1O [MQ, quercetin 3-O-β-D-glucuronopyranoside]
5 | 102 ± 6.09 µM | O=c1c(O)c(-c2ccc(O)c(O)c2)oc2cc(O)cc(O)c12 [QU, quercetin]

The next lines start with the compound.

Row | SMILES | IC50
6 | Oc1cc(O)c2c(c1)O[C@H](c1ccc(O)c(O)c1)[C@H](O)C2 [ECA, (−)-epicatechin] | 81.9 ± 3.96 µM
7 | COC(=O)c1ccccc1O[C@@H]1O[C@H](CO[C@@H]2OC[C@@H](O)[C@H](O)[C@H]2O)[C@@H](O)[C@H](O)[C@H]1O [GT, methyl salicylate 2-O-β-D-xylopyranosyl-(1→6)-β-D-glucuronopyranoside] | 64 ± 2.87 µM
8 | O=C(O)[C@H]1O[C@@H](Oc2c(-c3ccc(O)c(O)c3)oc3cc(O)cc(O)c3c2=O)[C@H](O[C@@H]2OC[C@@H](O)[C@H](O)[C@H]2O)[C@@H](O)[C@@H]1O [DGQ, quercetin 3-O-β-D-xylopyranosyl-(1→2)-β-D-glucuronopyranoside] | 98.1 ± 2.31 µM
9 | O=C(/C=C/c1ccc(O)c(O)c1)O[C@@H]1C[C@](O)(C(=O)O)C[C@@H](O)[C@H]1O [CHA, 5-O-caffeoylquinic acid] | 80.7 ± 3.42 µM
